Our source for the IC90 values is US20230017532A1 (Hoffmann-La Roche Inc., priority 2018, published 2023).

Where a name gives a salt, the structure may show the parent alone.

The first experiment relates to Acinetobacter baumannii ATCC17978. As to the kind of experiment: Antimicrobial susceptibility testing: 90% growth inhibitory concentration (IC90) determination, Iso-Sensitest broth, OD 600 nm. The class given is cell-based. Conditions: Acinetobacter baumannii, ATCC17978, 16 h, 90% growth inhibitory concentration, Acinetobacter baumannii ATCC17978, Iso-Sensitest broth, OD 600 nm over 16 h; read-out: ATCC 17978 IC90. The essentials: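 Growth of bacteria (~5×10^5 CFU/ml, Iso-Sensitest medium, 35±2 °C) was followed by OD at 600 nm at 20-min intervals over 16 h against a 10-point twofold compound series (e.g. 50–0.097 μM final). Concentration giving 90% inhibition in log phase was reported.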
By IC90 is commonly meant the point of the concentration-response curve where the effect stands at 90%. As to `CCc1cc(Nc2nccn3c(-c4ccc(OC)c(F)c4F)cnc23)ccc1C(=O)NCCCNCC[C@H](N)C(=O)O` [Example 183, (2S)-2-amino-4-[3-[[4-[[3-(2,3-difluoro-4-methoxyphenyl)imidazo[1,2-a]pyrazin-8-yl]amino]-2-ethyl-benzoyl]amino]propylamino] butanoic acid; formic acid], the IC90 was determined as 660 nM.

Regarding `CNC(=O)COCCNC(=O)c1ccc(Nc2nccn3c(-c4ccc(OC(F)F)cc4)cnc23)cc1C` [Example 11, 4-((3-(4-(difluoromethoxy)phenyl)imidazo[1,2-a]pyrazin-8-yl)amino)-2-methyl-N-(2-(2-(methylamino)-2-oxoethoxy)ethyl)benzamide], the IC90 stood at 160 nM.

Turning to `CCc1cc(Nc2nccn3c(-c4ccc(Cl)c(F)c4F)cnc23)ccc1C(=O)NCCOCCNCCO` [Example 92, 4-[[3-(4-chloro-2,3-difluoro-phenyl)imidazo [1,2-a]pyrazin-8-yl]amino]-2-ethyl-N-[2-[2-(2-hydroxyethyl-amino)ethoxy]ethyl]benzamide], the IC90 is 260 nM.

Take `Cc1cc(Nc2nccn3c(-c4ccc(OC(F)F)cc4)cnc23)ccc1C(=O)NCCOCCNC(=O)CN1CCN(C)CC1` [Example 143, 4-[[3-[4-(difluoro-methoxy)phenyl]imidazo [1,2-a]pyrazin-8-yl]amino]-2-methyl-N-[2-[2-[[2-(4-methylpiperazin-1-yl)acetyl]amino]ethoxy]ethyl] benzamide]: the IC90 is 1200 nM.

`COc1ccc(-c2cnc3c(Nc4ccc(C(=O)NCCOCC(=O)N5CCNCC5)c(C)c4)nccn23)cc1` [Example 112, 4-[[3-(4-methoxyphenyl)imidazo[1,2-a]pyrazin-8-yl]amino]-2-methyl-N-[2-(2-oxo-2-piperazin-1-ylethoxy)ethyl] benzamide]: the IC90 came to 570 nM.

`Cc1cc(Nc2nccn3c(-c4ccc(Cl)c(F)c4F)cnc23)ccc1C(=O)NCCNCCN` [Example 122, N-[2-(2-aminoethylamino)ethyl]-4-[[3-(4-chloro-2,3-difluorophenyl)imidazo[1,2-a]pyrazin-8-yl]amino]-2-methylbenzamide; hydrochloride]: the IC90 was 620 nM.

For `COc1ccc(-c2cnc3c(Nc4ccc(C(=O)NCCN(C)CCN)c(C)c4)nccn23)cc1F` [Example 23, N-(2-((2-aminoethyl)(methyl)amino)ethyl)-4-((3-(3-fluoro-4-methoxyphenyl)imidazo[1,2-a]pyrazin-8-yl)amino)-2-methylbenzamide], the IC90 came out at 200 nM.

As for `COc1ccc(-c2cnc3c(Nc4ccc(C(=O)NCCOCCn5ccnn5)c(C)c4)nccn23)cc1` [Example 107, 4-[[3-(4-methoxyphenyl)imidazo[1,2-a]pyrazin-8-yl]amino]-2-methyl-N-[2-[2-(triazol-1-yl)ethoxy]ethyl] benzamide], the IC90 came to 500 nM.

In the case of `CC(=O)NCCOCCNC(=O)c1ccc(Nc2nccn3c(-c4ccc(OC(F)F)cc4)cnc23)cc1C` [Example 98], the IC90 was 420 nM.

For `CCc1cc(Nc2nccn3c(-c4ccc(OC)c(F)c4F)cnc23)ccc1C(=O)NCCOCCN(C)C` [Example 169, 4-[[3-(2,3-difluoro-4-methoxyphenyl)imidazo[1,2-a]pyrazin-8-yl]amino]-N-[2-[2-(dimethylamino)ethoxy]ethyl]-2-ethylbenzamide], the IC90 was 130 nM.

On to `COc1ccc(-c2cnc3c(Nc4ccc(C(=O)N(C)CCN(C)CCO)c(C)c4)nccn23)cc1F` [Example 144, 4-[[3-(3-fluoro-4-methoxyphenyl)imidazo[1,2-a]pyrazin-8-yl]amino]-N-[2-[2-hydroxyethyl (methyl)amino]ethyl]-N,2-dimethyl-benzamide], for which the IC90 amounted to 1900 nM.

On to `Cc1cc(Nc2nccn3c(-c4ccc(OC(F)F)cc4)cnc23)ccc1C(=O)N(C)CCOCCN` [Example 136, N-[2-(2-aminoethoxy)ethyl]-4-[[3-[4-(difluoro-methoxy)phenyl]imidazo [1,2-a]pyrazin-8-yl]amino]-N,2-dimethyl-benzamide; hydrochloride], for which the IC90 was 860 nM.

Take `Cc1cc(Nc2nccn3c(-c4ccc(OC(F)F)cc4)cnc23)ccc1C(=O)NCCOCCOCCO` [Example 149, 4-[[3-[4-(difluoro-methoxy)phenyl]imidazo [1,2-a]pyrazin-8-yl]amino]-N-[2-[2-(2-hydroxyethoxy)ethoxy]ethyl]-2-methylbenzamide]: the IC90 was found to be 1300 nM.

`Cc1cc(Nc2nccn3c(-c4ccc(OC(F)F)cc4)cnc23)ccc1C(=O)NCCOCCNS(C)(=O)=O` [Example 102, 4-[[3-[4-(difluoromethoxy)phenyl]imidazo [1,2-a]pyrazin-8-yl]amino]-N-[2-[2-(methane-sulfonamido)ethoxy]ethyl]-2-methylbenzamide]: the IC90 came out at 460 nM.

Turning to `Cc1cc(Nc2nccn3c(-c4ccc(Cl)cc4)cnc23)ccc1C(=O)N(C)CCOCCN` [Example 138, N-[2-(2-aminoethoxy)ethyl]-4-[[3-(4-chlorophenyl)imidazo[1,2-a]pyrazin-8-yl]amino]-N,2-dimethyl-benzamide; hydrochloride], the IC90 worked out at 960 nM.

For `COc1ccc(-c2cnc3c(Nc4ccc(C(=O)NCCNCCO)c(C)c4)nccn23)cc1` [Example 7, N-(2-((2-hydroxyethyl)amino)ethyl)-4-((3-(4-methoxyphenyl)imidazo[1,2-a]pyrazin-8-yl)amino)-2-methylbenzamide], the IC90 was determined as 1900 nM.

As for `CCc1cc(Nc2nccn3c(-c4ccc(Cl)c(F)c4F)cnc23)ccc1C(=O)NCCSCCN` [Example 159, N-[2-(2-aminoethyl-sulfanyl)ethyl]-4-[[3-(4-chloro-2,3-difluorophenyl)imidazo[1,2-a]pyrazin-8-yl]amino]-2-ethylbenzamide], the IC90 was determined as 210 nM.

In the case of `Cc1cc(Nc2nccn3c(-c4ccc(OC(F)F)cc4)cnc23)ccc1C(=O)NCCOCCN1CC[C@H]2COC[C@@H]2C1` [Example 82, N-[2-[2-[(3aS, 7aR)-3,3a,4,6,7,7a-hexahydro-1H-furo[3,4-c]pyridin-5-yl]ethoxy]ethyl]-4-[[3-[4-(difluoromethoxy)phenyl]imidazo [1,2-a]pyrazin-8-yl]amino]-2-methylbenzamide], the IC90 amounted to 470 nM.

With `Cc1cc(Nc2nccn3c(-c4ccc(OC(F)F)cc4)cnc23)ccc1C(=O)NCCOCCN1CC2(COC2)C1` [Example 114, 4-[[3-[4-(difluoromethoxy)phenyl]imidazo [1,2-a]pyrazin-8-yl]amino]-2-methyl-N-[2-[2-(2-oxa-6-azaspiro [3.3]heptan-6-yl)ethoxy]ethyl] benzamide], the IC90 was 580 nM.

Consider `COc1ccc(-c2cnc3c(Nc4ccc(C(=O)NCCCOCC(=O)N5CCNCC5)c(C)c4)nccn23)cc1F` [Example 118, 4-[[3-(3-fluoro-4-methoxyphenyl)imidazo[1,2-a]pyrazin-8-yl]amino]-2-methyl-N-[3-(2-oxo-2-piperazin-1-ylethoxy)propyl] benzamide; hydrochloride], for which the IC90 came to 600 nM.

On to `CN(CCOCCN1CCNCC1)C(=O)c1ccc(Nc2nccn3c(-c4ccc(OC(F)F)cc4)cnc23)cc1Cl` [Example 162, 2-chloro-4-[[3-[4-(difluoromethoxy)phenyl]imidazo [1,2-a]pyrazin-8-yl]amino]-N-methyl-N-[2-(2-piperazin-1-yl-ethoxy)ethyl] benzamide; hydrochloride], for which the concentration for an effect of 90% (IC90) is 540 nM.

For the compound `Cc1cc(Nc2nccn3c(-c4ccc(OC(F)F)cc4)cnc23)ccc1C(=O)NCCOCC(N)=O` [Example 10, N-(2-(2-amino-2-oxoethoxy)ethyl)-4-((3-(4-(difluoromethoxy)phenyl)imidazo[1,2-a]pyrazin-8-yl)amino)-2-methylbenzamide], the IC90 is 170 nM.

Consider `CCc1cc(Nc2nccn3c(-c4ccc(OCC#N)c(F)c4F)cnc23)ccc1C(=O)NCCOCCN(C)C` [Example 21, 4-[[3-[4-(cyanomethoxy)-2,3-difluoro-phenyl]imidazo[1,2-a]pyrazin-8-yl]amino]-N-[2-[2-(dimethylamino)ethoxy]ethyl]-2-ethyl-benzamide], for which the IC90 came to 160 nM.

On to `Cc1cc(Nc2nccn3c(-c4ccc(OC(F)F)cc4)cnc23)ccc1C(=O)NCCNCCN` [Example 101, N-[2-(2-aminoethylamino)ethyl]-4-[[3-[4-(difluoromethoxy)phenyl]imidazo [1,2-a]pyrazin-8-yl]amino]-2-methylbenzamide; hydrochloride], for which the concentration for an effect of 90% (IC90) was found to be 440 nM.

The experiment is the same for the next values; noted with them: Acinetobacter baumannii, ATCC17978, 16 h, read-out: ATCC 17978 IC90.
For the compound `COc1ccc(-c2cnc3c(Nc4cc(C)c(C(=O)NCCOCCN)c(F)c4)nccn23)c(F)c1F` [Example 58, N-(2-(2-Aminoethoxy)ethyl)-4-((3-(2,3-difluoro-4-methoxyphenyl)imidazo[1,2-a]pyrazin-8-yl)amino)-2-fluoro-6-methylbenzamide formate], the IC90 is 51 nM.

With `COc1ccc(-c2cnc3c(Nc4ccc(C(=O)NCCOCCN)c(Cl)c4)nccn23)cc1F` [Example 4, N-(2-(2-aminoethoxy)ethyl)-2-chloro-4-((3-(3-fluoro-4-methoxyphenyl)imidazo[1,2-a]pyrazin-8-yl)amino)benzamide hydrochloride], the IC90 was determined as 98 nM.

Take `COc1ccc(-c2cnc3c(Nc4ccc(C(=O)NCCOCCN)c(C)c4)nccn23)c(F)c1` [Example 34, N-(2-(2-aminoethoxy)ethyl)-4-((3-(2-fluoro-4-methoxyphenyl)imidazo[1,2-a]pyrazin-8-yl)amino)-2-methylbenzamide hydrochloride]: the IC90 was 590 nM.

Consider `CCc1cc(Nc2nccn3c(-c4ccc(OC)c(F)c4F)cnc23)ccc1C(=O)NCCOCCOCCN` [Example 65, N-(2-(2-(2-Aminoethoxy)ethoxy)ethyl)-4-((3-(2,3-difluoro-4-methoxyphenyl)imidazo[1,2-a]pyrazin-8-yl)amino)-2-ethylbenzamide dihydrochloride], for which the IC90 stood at 72 nM.
